Experimental data reported in patent US5972678A, “Animal 2-5A dependent RNases” (Cleveland Clinic Foundation, priority 1995, dated 1999).

Columns and labels:
Assay type in all cases: binding
[1] = test system: murine 2-5A-dependent RNase (truncated recombinant clone ZB1 and murine L cell enzyme); experiment: UV covalent crosslinking of 32P-2-5A probe with unlabeled oligonucleotide competitors, murine enzyme; conditions: for concentration that prevents 2-5A probe binding: 32P-2-5A probe 2.4 nM, both recombinant (ZB1) and naturally occurring murine protein; for competition with 2-5A probe binding: competitor 100 nM, recombinant 74 kDa protein (clone ZB1) from wheat germ extract, similar profile with murine L929 cell enzyme
Description: FIG. 2A is a specific affinity of truncated murine 2-5A-dependent RNase for 2-5A. UV covalent crosslinking of the ^32 P-2-5A probe (lanes 1-7) to protein is performed after translation reactions in wheat germ extract (5 μl) with murine 2-5A-dependent RNase mRNA (from clone ZB1) (lanes 1-3) or without added RNA (lane 4) or in extract of interferon treated mouse L cells (100 μg of protein) (lanes 5-7). Reactions are without added competitor (lanes 1, 4, and 5) or in the presence of either trimer core. […] Lanes 8 and 9 are produced by incubating the wheat germ extract with ^35 S-methionine in the absence or presence of 2-5A-dependent RNase mRNA, respectively.
Autoradiograms of the dried SDS/10% polyacrylamide gels are shown. Concentrations of the oligonucleotide competitors are indicated. I is inosine.
To obtain recombinant protein for characterization, the cDNA is transcribed and translated in cell-free systems. See Example. 2-5A binding activity is then determined by covalently crosslinking the 2-5A probe to the protein with uv light, for example, Nolan-Sorden, N. L. et al., Anal. Biochem., 184: 298-304 (1990). […] See FIG. 2A, lanes 2 and 3, respectively. There is no detectable 2-5A binding proteins in the wheat germ extract as shown in the incubation without added RNA, FIG. 2A, lane 4. For comparison, a similar profile of 2-5A binding activity is obtained for the 80 kDa 2-5A-dependentRNase from murine L929 cells, incubated without added oligonucleotide or with (A2'p)2 A or p3 (A2'p)2 A as competitors. In a further comparison, covalent linkage of the 2-5A probe to the about 74 kDa protein and to murine L929 cell 2-5A-dependent RNase followed by partial digestion with chymotrypsin produces an identical pattern of six labeled peptides. Similarly, partial digestion of the two labeled proteins with S. aureus V8 protease also produces identical patterns of labeled cleavage products.
The 2-5A binding functions of the recombinant and naturally occurring forms of murine 2-5A-dependent RNase are characterized by covalent crosslinking to the 2-5A probe in the presence of unlabeled 2-5A or 2-5A analogues as competitors. […] In comparison, a 500-fold higher concentration of (A2'p)2 A (10 μM) is required to prevent probe binding to both proteins. See lane 13. The dimer species, p3 A2'pA, is unable to prevent the 2-5A probe from binding to the proteins even at a concentration of 10 μM (lane 18). However, the inosine analogue, p3 I2'pA2'pA, Imai, J. et al., J. Biol. Chem., 260: 1390-1393 (1985), is able to prevent probe binding to both proteins but only when added at a concentration of about 1.0 μM (lane 22).
The synthesis of the 2-5A probe, p(A2'p)2 (br^8 A2'p)2 A[32P]Cp, and its crosslinking to 2-5A-dependent RNase is performed exactly as described. See Nolan-Sorden, N. L. et al., Anal. Biochem., 184: 298-304 (1990). Briefly, the 2-5A probe, about 0.7 to 2.5 nM at […], is incubated for about one hour on ice with cell extract prepared as described, Silverman, R. H. and Krause, D., Lymphokines and Interferons: A Practical Approach, I.R.L. Press, Oxford. England, pp. 149-193 (1987), in the absence or presence of unlabeled oligonucleotide competitors. Covalent crosslinking is done under a uv lamp (308 nm) for one hour on ice and the proteins are separated on SDS/10% polyacrylamide gels. Filter assays for 2-5A binding activity using the 2-5A probe for about one hour on ice, as described in Knight, M. et al., Nature, 288: 189-192 (1980).

[2] = test system: human 2-5A-dependent RNase (recombinant and HeLa cell enzyme); experiment: UV covalent crosslinking of 2-5A probe with unlabeled competitors, human enzyme; conditions: competitor 100 nM; recombinant human enzyme from wheat germ extract; same pattern with interferon-treated HeLa cell extract
Description: FIG. 5A is specific affinity of recombinant human 2-5A-dependent RNase for 2-5A. Crosslinking of the 2-5A probe (lanes 1-7) to protein is performed after translation reactions in wheat germ extract (5 μl) with human 2-5A-dependent RNase mRNA (lanes 1-3) or without added RNA (lane 4) or in extract of human interferon a treated (1000 units per ml for 16 h) human HeLa cells (350 μg of protein) (lanes 5-7). […] Incubations with ^35 S-methionine are shown in lanes 8 to 12. Lane 8 is with wheat germ extract and human 2-5A-dependent RNase mRNA. Reticulocyte lysate preadsorbed to 2-5A-cellulose is incubated with human 2-5A-dependent RNase MRNA in the absence (lane 9) or presence (lane 10) of cycloheximide, or in the absence of added mRNA (lane 11). […] The positions and relative molecular masses (in kDa) of the marker proteins are indicated.
The 2-5A binding properties of the recombinant and naturally occurring forms of human 2-5A-dependent RNase are compared by uv covalent crosslinking to the 2-5A probe. […] Radiolabeling of the cloned human 2-5A-dependent RNase with the 2-5A probe is not prevented by (A2'p)2 A. See FIG. 5A, lanes 1 and 2. […] See lane 3. The same pattern of 2-5A binding activity is obtained with 2-5A-dependent RNase in an extract of interferon-treated human HeLa cells. […]

[3] = test system: 2-5A probe, Br-2-5A-[32P]pCp

Row | Molecule | concentration that prevents 2-5A probe binding [1] | competition with 2-5A probe binding [1] | competition with 2-5A probe binding [2] | also measured
1 | (A2'p)2 A | 10 µM | fails to interfere with binding of the protein to the 2-5A probe | not prevented | 
2 | p3 (A2'p)2 A | about 20 nM | completely prevents probe binding | effectively competes with the 2-5A probe | 
3 | p3 A2'pA | > 10 µM |  |  | 
4 | p3 I2'pA2'pA | about 1.0 μM |  |  | 
5 | Clone ZB1: truncated recombinant murine 2-5A-dependent RNase, amino acids 1-656 in Table II (protein, UniProt Q05921 1-656, looked up, fragment) METPDYNTPQGGTPSAGSQRTVVEDDSSLIKAVQKGDVVRVQQLLEKGADANACEDTWGWTPLHNAVQAGRVDIVNLLLSHGADPHRRKKNGATPFIIAGIQGDVKLLEILLSCGADVNECDENGFTAFMEAAERGNAEALRFLFAKGANVNLRRQTTKDKRRLKQGGATALMSAAEKGHLEVLRILLNDMKAEVDARDNMGRNALIRTLLNWDCENVEEITSILIQHGADVNVRGERGKTPLIAAVERKHTGLVQMLLSREGINIDARDNEGKTALLIAVDKQLKEIVQLLLEKGADKCDDLVWIARRNHDYHLVKLLLPYVANPDTDPPAGDWSPHSSRWGTALKSLHSMTRPMIGKLKIFIHDDYKIAGTSEGAVYLGIYDNREVAVKVFRENSPRGCKEVSCLRDCGDHSNLVAFYGREDDKGCLYVCVSLCEWTLEEFLRLPREEPVENGEDKFAHSILLSIFEGVQKLHLHGYSHQDLQPQNILIDSKKAVRLADFDQSIRWMGESQMVRRDLEDLGRLVLYVVMKGEIPFETLKTQNDEVLLTMSPDEETKDLIHCLFSPGENVKNCLVDLLGHPFFWTWENRYRTLRNVGNESDIKVRKCKSDLLRLLQHQTLEPPRSFDQWTSKIDKNVMDEMNHFYEKRKKNPYQD |  |  |  | 2-5A binding activity compared with naturally occurring enzyme (in words) ([3]; uv crosslinking to 2-5A probe with competitors, protein missing about 84 carboxy-terminal amino acids): indistinguishable from that of naturally occurring 2-5A-dependentRNase
6 | Clone ZB1 (Lys^240,274 →Asn): double mutant of clone ZB1, lysines 240 and 274 replaced with asparagine (protein, UniProt Q05921 1-656, looked up, variant K240N K274N) METPDYNTPQGGTPSAGSQRTVVEDDSSLIKAVQKGDVVRVQQLLEKGADANACEDTWGWTPLHNAVQAGRVDIVNLLLSHGADPHRRKKNGATPFIIAGIQGDVKLLEILLSCGADVNECDENGFTAFMEAAERGNAEALRFLFAKGANVNLRRQTTKDKRRLKQGGATALMSAAEKGHLEVLRILLNDMKAEVDARDNMGRNALIRTLLNWDCENVEEITSILIQHGADVNVRGERGNTPLIAAVERKHTGLVQMLLSREGINIDARDNEGNTALLIAVDKQLKEIVQLLLEKGADKCDDLVWIARRNHDYHLVKLLLPYVANPDTDPPAGDWSPHSSRWGTALKSLHSMTRPMIGKLKIFIHDDYKIAGTSEGAVYLGIYDNREVAVKVFRENSPRGCKEVSCLRDCGDHSNLVAFYGREDDKGCLYVCVSLCEWTLEEFLRLPREEPVENGEDKFAHSILLSIFEGVQKLHLHGYSHQDLQPQNILIDSKKAVRLADFDQSIRWMGESQMVRRDLEDLGRLVLYVVMKGEIPFETLKTQNDEVLLTMSPDEETKDLIHCLFSPGENVKNCLVDLLGHPFFWTWENRYRTLRNVGNESDIKVRKCKSDLLRLLQHQTLEPPRSFDQWTSKIDKNVMDEMNHFYEKRKKNPYQD |  |  |  | 2-5A binding activity, % of the activity of clone ZB1 ([3]; uv crosslinking, phosphorimager analysis of dried gel, wheat germ extract translation products): 12.2%
